The test system of series [1] is Tyrosine-protein kinase ABL1 (Homo sapiens), P00519 [H396P]. Nature of the series: Competitive binding affinity to human ABL1 H396P mutant at 500 nM incubated for 1 hr by qPCR analysis relative to control.
Series [2] has as its target Platelet-derived growth factor receptor beta (Homo sapiens) (UniProt P09619). Nature of the series: Inhibition of human PDGFRbeta binding to streptavidin-coated magnetic beads immobilized biotinylated ligand at 500 nM incubated for 1 hr by qPCR analysis relative to control. Background: Quantitative PCR measures a nucleic acid by following its amplification.
A short description of series [3]: Kinetic aqueous solubility of compound at pH 7.4 at 500 uM incubated for 90 mins by spectrophotometry analysis. The format is physicochemical. The note with it: buffer, read-out: Kinetic_solubility.
Series [4] has as its target Mast/stem cell growth factor receptor Kit (Homo sapiens) (UniProt P10721). Nature of the series: Inhibition of autoinhibited wild type human KIT binding to streptavidin-coated magnetic beads immobilized biotinylated ligand at 500 nM incubated for 1 hr by qPCR analysis relative to control.
Series [5] has as its target T1, Ephrin type-B receptor 6 (Homo sapiens) (UniProt O15197).
T1 sequence (whole entry): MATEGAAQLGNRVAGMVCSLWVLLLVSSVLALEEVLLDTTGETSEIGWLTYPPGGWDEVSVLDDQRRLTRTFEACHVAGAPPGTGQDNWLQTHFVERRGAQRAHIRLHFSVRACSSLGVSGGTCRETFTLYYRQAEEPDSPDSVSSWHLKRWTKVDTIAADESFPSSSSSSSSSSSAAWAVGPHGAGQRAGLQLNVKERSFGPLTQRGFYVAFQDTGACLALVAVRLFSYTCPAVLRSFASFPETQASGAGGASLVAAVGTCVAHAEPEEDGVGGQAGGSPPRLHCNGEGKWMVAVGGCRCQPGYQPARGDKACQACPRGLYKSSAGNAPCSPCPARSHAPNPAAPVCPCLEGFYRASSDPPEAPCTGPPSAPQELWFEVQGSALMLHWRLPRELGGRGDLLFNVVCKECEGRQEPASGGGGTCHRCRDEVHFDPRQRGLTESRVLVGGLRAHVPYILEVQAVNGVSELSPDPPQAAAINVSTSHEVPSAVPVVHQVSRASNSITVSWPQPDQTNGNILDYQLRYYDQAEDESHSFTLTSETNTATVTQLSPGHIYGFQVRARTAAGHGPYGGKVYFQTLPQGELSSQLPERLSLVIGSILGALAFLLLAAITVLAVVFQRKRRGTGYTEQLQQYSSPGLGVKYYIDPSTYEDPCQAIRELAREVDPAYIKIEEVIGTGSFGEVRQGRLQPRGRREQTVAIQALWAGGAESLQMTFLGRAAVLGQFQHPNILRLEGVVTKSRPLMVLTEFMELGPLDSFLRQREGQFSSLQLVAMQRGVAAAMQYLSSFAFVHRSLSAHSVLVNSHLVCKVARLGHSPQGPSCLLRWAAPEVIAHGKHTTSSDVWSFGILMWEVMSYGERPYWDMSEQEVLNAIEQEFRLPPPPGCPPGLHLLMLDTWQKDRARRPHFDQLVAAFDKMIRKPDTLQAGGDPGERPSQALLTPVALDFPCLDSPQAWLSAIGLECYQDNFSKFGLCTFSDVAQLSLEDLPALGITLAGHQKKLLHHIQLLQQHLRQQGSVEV
Briefly: Competitive binding affinity to human EPHB6 at 500 nM incubated for 1 hr by qPCR analysis relative to control.

In series [6] the test system is T2, Receptor-type tyrosine-protein kinase FLT3 (Homo sapiens), P36888 [D835V].
T2 sequence (whole entry): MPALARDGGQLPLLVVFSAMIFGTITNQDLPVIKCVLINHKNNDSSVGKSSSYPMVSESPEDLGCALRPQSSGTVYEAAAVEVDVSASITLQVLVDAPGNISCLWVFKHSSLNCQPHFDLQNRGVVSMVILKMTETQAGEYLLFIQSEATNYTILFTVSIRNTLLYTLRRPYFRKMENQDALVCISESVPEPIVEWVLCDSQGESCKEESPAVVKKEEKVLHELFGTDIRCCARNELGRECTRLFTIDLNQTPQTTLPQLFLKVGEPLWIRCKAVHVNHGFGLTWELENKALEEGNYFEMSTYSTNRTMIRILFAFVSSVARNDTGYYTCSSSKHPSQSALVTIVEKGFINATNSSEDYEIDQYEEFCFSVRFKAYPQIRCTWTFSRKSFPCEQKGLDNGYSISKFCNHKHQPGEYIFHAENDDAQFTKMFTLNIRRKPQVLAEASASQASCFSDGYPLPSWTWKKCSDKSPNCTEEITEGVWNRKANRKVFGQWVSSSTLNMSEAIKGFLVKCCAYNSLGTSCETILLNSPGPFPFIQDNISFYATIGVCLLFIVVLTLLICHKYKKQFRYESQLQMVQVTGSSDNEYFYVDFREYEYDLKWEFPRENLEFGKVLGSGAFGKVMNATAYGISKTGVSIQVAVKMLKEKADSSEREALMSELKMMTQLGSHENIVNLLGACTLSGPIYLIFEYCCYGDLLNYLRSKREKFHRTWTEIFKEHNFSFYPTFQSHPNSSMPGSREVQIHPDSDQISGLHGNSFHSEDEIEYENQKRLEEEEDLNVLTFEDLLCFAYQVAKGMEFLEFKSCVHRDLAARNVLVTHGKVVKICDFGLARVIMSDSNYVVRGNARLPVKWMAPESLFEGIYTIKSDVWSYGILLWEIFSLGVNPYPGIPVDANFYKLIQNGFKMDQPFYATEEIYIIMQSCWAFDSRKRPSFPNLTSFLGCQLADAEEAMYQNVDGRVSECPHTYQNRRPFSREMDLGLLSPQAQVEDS
Briefly: Competitive binding affinity to human FLT3 D835V mutant at 500 nM incubated for 1 hr by qPCR analysis relative to control.

The structures appear in SMILES notation. Values after ≈ are worked out from the molar mass of the structure shown.

Platelet-derived growth factor receptor beta (Homo sapiens), sequence (P09619 whole entry): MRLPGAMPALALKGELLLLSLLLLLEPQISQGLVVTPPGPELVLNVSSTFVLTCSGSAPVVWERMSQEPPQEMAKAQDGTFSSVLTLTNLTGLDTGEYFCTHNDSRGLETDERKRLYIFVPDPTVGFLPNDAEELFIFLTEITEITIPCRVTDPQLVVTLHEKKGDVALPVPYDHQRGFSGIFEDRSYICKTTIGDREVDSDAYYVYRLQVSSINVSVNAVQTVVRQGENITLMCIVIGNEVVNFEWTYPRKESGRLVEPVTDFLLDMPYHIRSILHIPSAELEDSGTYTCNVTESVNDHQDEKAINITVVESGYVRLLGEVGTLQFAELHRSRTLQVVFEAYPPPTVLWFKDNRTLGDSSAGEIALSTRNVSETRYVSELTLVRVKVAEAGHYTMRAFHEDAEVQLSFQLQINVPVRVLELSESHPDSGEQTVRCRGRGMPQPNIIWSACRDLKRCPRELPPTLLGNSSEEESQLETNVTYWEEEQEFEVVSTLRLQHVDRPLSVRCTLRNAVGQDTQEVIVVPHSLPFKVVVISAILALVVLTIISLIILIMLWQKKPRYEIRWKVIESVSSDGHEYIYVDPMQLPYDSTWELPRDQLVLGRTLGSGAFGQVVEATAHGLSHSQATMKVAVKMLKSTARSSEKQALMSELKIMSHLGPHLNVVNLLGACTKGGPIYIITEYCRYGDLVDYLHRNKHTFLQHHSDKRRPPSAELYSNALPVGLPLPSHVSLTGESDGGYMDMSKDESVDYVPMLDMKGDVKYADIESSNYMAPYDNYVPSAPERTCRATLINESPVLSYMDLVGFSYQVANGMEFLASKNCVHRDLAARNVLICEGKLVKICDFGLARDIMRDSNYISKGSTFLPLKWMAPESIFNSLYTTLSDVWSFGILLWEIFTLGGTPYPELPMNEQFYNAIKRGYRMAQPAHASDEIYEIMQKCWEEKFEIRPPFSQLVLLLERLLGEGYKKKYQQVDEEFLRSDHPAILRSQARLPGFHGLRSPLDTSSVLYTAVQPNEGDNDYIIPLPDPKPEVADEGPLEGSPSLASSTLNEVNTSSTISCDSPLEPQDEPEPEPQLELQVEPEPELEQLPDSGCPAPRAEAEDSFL
Mast/stem cell growth factor receptor Kit (Homo sapiens), sequence (P10721 whole entry): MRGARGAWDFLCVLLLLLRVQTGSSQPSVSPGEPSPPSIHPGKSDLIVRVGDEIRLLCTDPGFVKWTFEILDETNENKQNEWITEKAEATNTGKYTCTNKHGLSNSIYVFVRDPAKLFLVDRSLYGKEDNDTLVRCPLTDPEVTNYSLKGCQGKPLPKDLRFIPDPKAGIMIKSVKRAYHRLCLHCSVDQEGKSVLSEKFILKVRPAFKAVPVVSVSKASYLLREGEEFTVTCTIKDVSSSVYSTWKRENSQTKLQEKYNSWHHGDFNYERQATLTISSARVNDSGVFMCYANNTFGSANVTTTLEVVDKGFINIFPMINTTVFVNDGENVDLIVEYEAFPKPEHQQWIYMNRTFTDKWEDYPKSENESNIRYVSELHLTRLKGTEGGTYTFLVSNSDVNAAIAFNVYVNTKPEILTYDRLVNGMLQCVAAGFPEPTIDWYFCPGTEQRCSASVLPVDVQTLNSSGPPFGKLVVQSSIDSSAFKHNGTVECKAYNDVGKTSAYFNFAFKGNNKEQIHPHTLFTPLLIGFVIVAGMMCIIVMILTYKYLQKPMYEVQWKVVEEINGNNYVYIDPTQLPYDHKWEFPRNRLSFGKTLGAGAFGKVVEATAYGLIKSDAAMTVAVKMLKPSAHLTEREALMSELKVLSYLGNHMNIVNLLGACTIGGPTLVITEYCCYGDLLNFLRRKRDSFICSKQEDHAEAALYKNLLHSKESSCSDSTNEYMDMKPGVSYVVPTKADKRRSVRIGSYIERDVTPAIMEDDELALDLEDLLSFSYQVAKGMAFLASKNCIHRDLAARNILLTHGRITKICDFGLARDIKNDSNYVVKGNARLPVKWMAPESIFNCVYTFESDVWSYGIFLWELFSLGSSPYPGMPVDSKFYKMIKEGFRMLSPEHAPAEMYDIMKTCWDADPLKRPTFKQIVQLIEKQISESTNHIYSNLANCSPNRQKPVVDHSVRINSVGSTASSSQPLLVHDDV

Usually inhibition stands for the drop in the measured response relative to a control, in per cent. Read a high inhibition as a strong effect. Take `CN(CC1CCCC1)c1ncnc2[nH]c(-c3ccc(CO)cc3)nc12`: the Activity in series [1] is 96%; in series [5], 87%; in series [6] it was 92%. Moreover, the inhibition in series [2] and in series [4] was 12% throughout. In series [3], the solubility kinetic at […], 500 µM is 3.5 µM (≈ 1.18 µg/mL).

For the origin of these results see ChEMBL document CHEMBL5321237 (Eur J Med Chem, 2023).
